Results published in patent publication US9586951B2 (FUJIFILM Corporation, priority 2013, dated 2017).

Experiments:
ATM = target: T1, ATM (Homo sapiens, UniProt Q13315); assay: ATM inhibition test (phosphorylation of Chk2 generated by ionizing radiation, AlphaScreen SureFire); format: cell-based; conditions: phosphorylated Chk2 in NCI-H460 cells, ionizing radiation 8Gy, 1 hour after test compound treatment; read-out: ATM inhibitory activity
T1 construct: detecting phosphorylation of Chk2 in a human non-small cell lung cancer cell line NCI-H460 (ATCC company); host or cells: NCI-H460 human non-small cell lung cancer cells
Procedure, shortened: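 NCI-H460 cells, compound 1 h pre-treatment, 8Gy IR, further 1 h at 37° C in 5% CO2. Read-out: phospho-Chk2 via AlphaScreen SureFire. % inhibition relative to IR-induced signal window (irradiated vs non-irradiated drug-free wells).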

[1] = test system: human non-small cell lung cancer cell line NCI-H460; assay: Cell proliferation inhibition test by sensitivity-enhancing to ionizing radiation (Cell Titer Glo); format: cell-based; conditions: concentration in which SER became 2, NCI-H460 cells, ionizing radiation 2 Gy, cultured 120 hour; for SER2 (concentration at which the radiation sensitivity-enhancement ratio reaches 2): Homo sapiens, NCI-H460, 120 h
Procedure, shortened: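 Radiosensitisation measured as SER, a ratio of Cell Titer Glo luminescence in irradiated vs unirradiated plates relative to DMSO; SER2, the concentration yielding SER 2, came from sigmoidal regression. Compound (0.1% DMSO) was given 24 h post-seeding, 2 Gy applied 30 min later, then 120 hour culture at 37° C.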

T1 sequence (Q13315 whole entry): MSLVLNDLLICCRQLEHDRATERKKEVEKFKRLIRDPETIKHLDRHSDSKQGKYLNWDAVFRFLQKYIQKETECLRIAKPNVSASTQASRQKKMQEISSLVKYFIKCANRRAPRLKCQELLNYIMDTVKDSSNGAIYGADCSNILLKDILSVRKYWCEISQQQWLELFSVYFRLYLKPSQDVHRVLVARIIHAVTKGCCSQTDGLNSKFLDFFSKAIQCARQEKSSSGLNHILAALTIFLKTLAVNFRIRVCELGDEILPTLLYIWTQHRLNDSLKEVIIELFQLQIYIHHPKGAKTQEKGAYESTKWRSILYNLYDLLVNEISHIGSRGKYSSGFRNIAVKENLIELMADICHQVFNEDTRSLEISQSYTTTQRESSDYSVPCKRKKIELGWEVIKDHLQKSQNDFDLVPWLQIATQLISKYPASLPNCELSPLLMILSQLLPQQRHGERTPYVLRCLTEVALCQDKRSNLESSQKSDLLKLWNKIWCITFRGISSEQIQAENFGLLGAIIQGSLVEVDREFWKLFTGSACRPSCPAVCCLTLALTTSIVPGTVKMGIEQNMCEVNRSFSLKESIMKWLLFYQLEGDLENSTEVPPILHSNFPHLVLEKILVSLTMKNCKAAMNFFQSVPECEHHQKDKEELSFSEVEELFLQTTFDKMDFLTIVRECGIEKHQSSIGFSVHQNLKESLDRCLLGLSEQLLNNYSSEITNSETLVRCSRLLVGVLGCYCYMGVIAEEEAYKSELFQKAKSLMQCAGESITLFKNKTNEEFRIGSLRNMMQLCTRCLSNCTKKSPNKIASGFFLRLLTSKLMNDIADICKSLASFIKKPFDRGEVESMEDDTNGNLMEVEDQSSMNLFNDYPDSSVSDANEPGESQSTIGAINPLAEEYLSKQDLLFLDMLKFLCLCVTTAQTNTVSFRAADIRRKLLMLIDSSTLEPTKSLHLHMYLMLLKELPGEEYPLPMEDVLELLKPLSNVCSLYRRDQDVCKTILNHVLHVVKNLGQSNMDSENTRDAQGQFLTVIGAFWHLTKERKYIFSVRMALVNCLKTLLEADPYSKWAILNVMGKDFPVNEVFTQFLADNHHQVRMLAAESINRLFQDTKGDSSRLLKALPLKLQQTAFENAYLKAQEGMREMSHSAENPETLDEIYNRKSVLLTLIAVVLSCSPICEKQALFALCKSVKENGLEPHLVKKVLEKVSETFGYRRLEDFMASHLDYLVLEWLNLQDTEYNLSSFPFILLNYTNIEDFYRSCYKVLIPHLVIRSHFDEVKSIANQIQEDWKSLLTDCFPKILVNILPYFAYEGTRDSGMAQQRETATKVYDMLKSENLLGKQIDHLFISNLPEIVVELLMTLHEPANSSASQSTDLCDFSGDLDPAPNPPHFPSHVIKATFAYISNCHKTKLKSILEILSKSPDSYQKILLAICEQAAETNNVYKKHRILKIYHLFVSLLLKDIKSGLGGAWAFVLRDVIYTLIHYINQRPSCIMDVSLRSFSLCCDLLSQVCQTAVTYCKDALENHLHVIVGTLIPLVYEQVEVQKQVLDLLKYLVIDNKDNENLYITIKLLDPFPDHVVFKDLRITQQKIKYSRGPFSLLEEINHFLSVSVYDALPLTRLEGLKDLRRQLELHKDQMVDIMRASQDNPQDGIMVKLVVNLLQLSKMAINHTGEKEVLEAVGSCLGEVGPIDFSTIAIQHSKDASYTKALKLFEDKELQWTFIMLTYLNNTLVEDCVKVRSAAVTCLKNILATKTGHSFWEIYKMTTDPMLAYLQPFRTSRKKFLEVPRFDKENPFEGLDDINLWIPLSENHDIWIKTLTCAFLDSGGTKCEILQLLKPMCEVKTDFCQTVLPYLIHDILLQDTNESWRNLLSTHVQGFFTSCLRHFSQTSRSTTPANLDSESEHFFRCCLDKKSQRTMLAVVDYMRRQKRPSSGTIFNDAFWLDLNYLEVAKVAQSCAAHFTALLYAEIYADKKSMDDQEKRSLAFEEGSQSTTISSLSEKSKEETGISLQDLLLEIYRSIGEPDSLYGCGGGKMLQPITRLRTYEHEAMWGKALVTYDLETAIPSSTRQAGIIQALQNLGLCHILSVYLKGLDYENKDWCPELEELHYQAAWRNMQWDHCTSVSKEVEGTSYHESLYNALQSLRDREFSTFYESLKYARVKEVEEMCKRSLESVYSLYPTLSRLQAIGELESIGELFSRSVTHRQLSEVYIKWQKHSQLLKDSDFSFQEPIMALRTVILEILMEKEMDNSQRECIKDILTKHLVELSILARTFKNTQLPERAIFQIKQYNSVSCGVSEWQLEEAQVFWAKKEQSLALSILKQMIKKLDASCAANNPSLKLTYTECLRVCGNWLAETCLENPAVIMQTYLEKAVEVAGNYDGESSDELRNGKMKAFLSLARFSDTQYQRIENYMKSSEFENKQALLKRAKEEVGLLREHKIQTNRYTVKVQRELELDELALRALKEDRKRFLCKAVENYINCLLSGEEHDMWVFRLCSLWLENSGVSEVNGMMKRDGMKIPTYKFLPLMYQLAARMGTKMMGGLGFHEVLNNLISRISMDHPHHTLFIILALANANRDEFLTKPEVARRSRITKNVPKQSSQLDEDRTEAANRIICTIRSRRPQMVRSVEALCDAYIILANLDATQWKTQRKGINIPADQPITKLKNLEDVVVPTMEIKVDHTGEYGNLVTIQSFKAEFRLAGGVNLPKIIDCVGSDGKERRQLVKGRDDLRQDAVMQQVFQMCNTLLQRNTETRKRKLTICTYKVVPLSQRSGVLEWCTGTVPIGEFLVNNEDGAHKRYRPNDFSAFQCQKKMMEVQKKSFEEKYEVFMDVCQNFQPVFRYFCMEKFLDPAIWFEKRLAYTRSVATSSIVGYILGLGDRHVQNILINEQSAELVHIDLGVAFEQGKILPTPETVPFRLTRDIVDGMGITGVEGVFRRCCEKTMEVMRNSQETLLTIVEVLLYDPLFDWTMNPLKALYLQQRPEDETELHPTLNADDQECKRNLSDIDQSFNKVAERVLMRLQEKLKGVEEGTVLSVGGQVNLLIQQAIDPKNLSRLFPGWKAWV

Structure (SMILES) | IC50 (ATM) [nM] | IC50 ([1]; read-out: SER2) [nM] | SER2 (concentration at which the radiation sensitivity-enhancement ratio reaches 2) [1] [nM]
O=c1cc(N2CCOCC2)cc(-c2cccc3c2Sc2ccc(NCc4ccnc(Cl)c4)cc2S3)[nH]1 [Example 1-12-18] | < 100 | 100 to 500 | –
N#Cc1ccnc(CNc2ccc3c(c2)Sc2cccc(-c4cc(N5CCOCC5)cc(=O)[nH]4)c2S3)c1 [Example 1-12-28, 2-(((6-(4-Morpholino-6-oxo-1,6-dihydro-pyridin-2-yl)thianthren-2-yl)amino)methyl) isonicotinonitrile] | < 100 | – | 100 to 500
Cc1ccnc(C(C)Nc2ccc3c(c2)Sc2cccc(-c4cc(N5CCOCC5)cc(=O)[nH]4)c2S3)c1 (stereo not drawn) [Example 1-12-29] | < 100 | – | < 100
N#Cc1cccc(CNc2ccc3c(c2)Sc2cccc(-c4cc(N5CCOCC5)cc(=O)[nH]4)c2S3)n1 [Example 1-12-38, 6-(((6-(4-Morpholino-6-oxo-1,6-dihydropyridin-2-yl)thianthren-2-yl)amino)methyl)picolinonitrile] | < 100 | – | < 100
CNc1ncc(CNc2ccc3c(c2)Sc2cccc(-c4cc(N5CCOCC5)cc(=O)[nH]4)c2S3)cn1 [Example 1-12-46, 6-(7-(((2-(Methylamino)pyrimidin-5-yl)methyl)amino)thianthren-1-yl)-4-morpholino pyridin-2(1H)-one] | < 100 | – | 100 to 500

Further lines, with some results ahead:

IC50 (ATM) [nM] | Structure (SMILES) | IC50 ([1]; read-out: SER2) [nM] | SER2 (concentration at which the radiation sensitivity-enhancement ratio reaches 2) [1] [nM]
< 100 | Cc1cccc(C(C)Nc2ccc3c(c2)Sc2cccc(-c4cc(N5CCOCC5)cc(=O)[nH]4)c2S3)n1 (stereo not drawn) [Example 1-12-30, 6-(7-((1-(6-Methylpyridin-2-yl)ethyl)amino)thianthren-1-yl)-4-morpholino pyridin-2 (1H)-one] | – | < 100
< 100 | Cc1cncc(C(C)Nc2ccc3c(c2)Sc2cccc(-c4cc(N5CCOCC5)cc(=O)[nH]4)c2S3)c1 (stereo not drawn) [Example 1-12-50, 6-(7-((1-(5-Methylpyridin-3-yl)ethyl)amino)thianthren-1-yl)-4-morpholino pyridin-2 (1H)-one] | – | 100 to 500
< 100 | Cc1cnc(CNc2ccc3c(c2)Sc2cccc(-c4cc(N5CCOCC5)cc(=O)[nH]4)c2S3)cn1 [Example 1-12-62, 6-(7-(((5-Methylpyrazin-2-yl)methyl)amino)thianthren-1-yl)-4-morpholino pyridin-2 (1H)-one] | – | 100 to 500
< 100 | CC(Nc1ccc2c(c1)Sc1cccc(-c3cc(N4CCOCC4)cc(=O)[nH]3)c1S2)c1cnccn1 (stereo not drawn) [Example 1-12-63, 4-Morpholino-6-(7-((1-(pyrazin-2-yl)ethyl)amino)thianthren-1-yl)pyridin-2 (1H)-one] | – | 100 to 500
< 100 | Cc1cnc(C(C)Nc2ccc3c(c2)Sc2cccc(-c4cc(N5CCOCC5)cc(=O)[nH]4)c2S3)cn1 (stereo not drawn) [Example 1-12-64, 6-(7-((1-(5-Methylpyrazin-2-yl)ethyl)amino)thianthren-1-yl)-4-morpholino pyridin-2(1H)-one] | – | < 100
< 100 | Cc1ccnc(C(CO)Nc2ccc3c(c2)Sc2cccc(-c4cc(N5CCOCC5)cc(=O)[nH]4)c2S3)c1 (stereo not drawn) [Example 1-12-65, 6-(7-((2-Hydroxy-1-(4-methylpyridin-2-yl)ethyl)amino)thianthren-1-yl)-4-morpholino pyridin-2(1H)-one] | – | 100 to 500
< 100 | Cc1ccnc(C(C)Nc2ccc3c(c2)Sc2cccc(-c4cc(N5CCOCC5)cc(=O)[nH]4)c2S3)n1 (stereo not drawn) [Example 1-12-69, 6-(7-((1-(4-Methylpyrimidin-2-yl)ethyl)amino)thianthren-1-yl)-4-morpholino pyridin-2(1H)-one] | – | < 100
